Test results from the NIST ThermoML archive (doi:10.1016/j.jct.2008.08.012).
Numbers after ± are expanded uncertainties.

Experiments:
[1] = Crystal; for mass density: 298.15 K, 101.33 kPa, mass and volume of pellet; for Normal melting temperature: DTA
[2] = Molar enthalpy of transition or fusion; conditions: Crystal; DSC

Row | SMILES | mass density [1] | Normal melting temperature [1] | Molar enthalpy of transition or fusion [2]
1 | O=C1Cc2ccccc2CO1 [1,4-dihydro-3H-2-benzopyran-3-one] | 1140 ± 10 kg/m3 | 82.73 ± 0.39 °C | 4.37 ± 0.112 kcal/mol
2 | O=C1CCOc2ccccc21 [2,3-dihydro-4H-1-benzopyran-4-one] | 1140 ± 10 kg/m3 | 39.13 ± 0.39 °C | 4 ± 0.129 kcal/mol
